Here are results for one substance from patent US10092657B2, “Opsonized β-glucan preparations and methods” (Biothera, Inc., priority 2011, dated 2018).

Assay [1] relates to human monocytes. Description: Binding of PGG β-glucan to human monocytes within PBMC (BfD IV staining, flow cytometry). It counts as cell-based. On the procedure: (§1) Enriched neutrophils or PBMC were resuspended at 1×10^6 cells/mL in RPMI 1640 supplemented with 10% serum. PGG β-glucan at hexose concentrations 100 μg/mL, 200 μg/mL, or 400 μg/mL were added to neutrophils or PBMC and incubated in a 37° C., 5% CO2 humidified incubator for two hours. After incubation, cells were washed twice with FACS buffer (HBSS supplemented with 1% FBS and 0.1% sodium azide) to remove any unbound β-glucan, and subsequently treated with Fc block (Miltenyi Biotec, Auburn, Calif.). […] Cells were then incubated with FITC-conjugated F(ab′)2 goat anti-mouse IgM for 30 minutes at 4° C. and washed once with cold FACS buffer before fixing with 1% paraformaldehyde. In early optimization experiments, neutrophils, monocytes, and T cells were identified by staining with fluorescently labeled anti-CD 15, anti-CD 14, or anti-CD3 Abs, respectively. Events were collected on a LSRII flow cytometer (BD Biosciences, San Jose, Calif.) and analysis was performed using FLOWJO (Tree Star, Ashland, Oreg.). […] Surface binding of DTAF-conjugated β-glucan was subsequently assessed by flow cytometric analysis. […] The experiments to determine binding of PGG β-glucan at 200 μg/mL to neutrophils or at 100 μg/mL to PBMC were performed as described above with the following changes. For determining serum dependency, PGG β-glucan was incubated with neutrophils or PBMC resuspended in RPMI 1640 containing 2%, 5%, or 10% autologous serum at 37° C. for two hours. For time-course experiments, PGG β-glucan at indicated concentrations was incubated with cells resuspended in 10% autologous serum at 37° C. for 10 minutes, 20 minutes, 60 minutes, or 120 minutes. For temperature dependency experiments, PGG β-glucan at indicated concentrations was incubated with cells resuspended in 10% autologous serum for two hours at 4° C., room temperature, or 37° C.
On the technique in general: A flow cytometer gives signals particle by particle.

For assay [2], the system named is human monocytes. Description: iC3b staining on PGG β-glucan-bound monocytes (flow cytometry). The class given is cell-based. The conditions noted are these: 100 μg/mL; 10% serum; 37° C.; two hours. From the text: Binding of PGG β-glucan to neutrophils and PBMC was done as above. iC3b deposition on these cells was detected by staining with a neo-epitope specific anti-iC3b Ab and PE-conjugated goat anti-mouse IgG and analyzing by flow cytometry.

In assay [3] the test system is human monocytes. Description: Binding of PGG β-glucan after serum pre-treatment, monocytes. The class given is cell-based. The conditions noted are these: 100 μg/mL; 10% HI serum; two hours at 37° C. On the procedure: PGG β-glucan at concentration 60-80 mg/mL was incubated with human serum at 1:10 volume ratio for 30 minutes in a 37° C. water bath. The serum-pretreated PGG β-glucan was added to neutrophils at 200 μg/mL or to PBMC at 100 μg/mL resuspended in RPM1 containing either 10% regular autologous serum or 10% HI serum at indicated time and temperature of incubation. Binding was then determined as described previously.
To determine the role of complement proteins in binding, experiments were performed as described above except for using serum containing 10% HI, compstatin-treated or methylamine (MA)-treated, EGTA- or EGTA+MgCl2 (MgEGTA)-treated, or factor D-blocked serum. Heat-inactivated (HI) serum was prepared by incubating serum in a 56° C. water bath for 30 minutes. […] Treatment of serum with methylamine (MA) was done by incubating serum with 0.67% of methylamine for 2.5 hours at 37° C., followed by three washes with DPBS using Amicon centrifugal filter unit with a 3K MW cut-off (Millipore, Billerica, Mass.). DPBS-treated serum was prepared in the same manner and used as control serum for MA-treated serum. For blocking of factor D in the serum, 166-32 at concentration 20 μg/mL was incubated with serum on ice for 30 minutes, and then used for binding studies. […]

Assay [4] deals with human neutrophils. Description: Binding of PGG β-glucan to human neutrophils (BfD IV staining, flow cytometry). It counts as cell-based. Here is the method:
as §1

Assay [5] deals with human monocytes. Description: Binding studies on the role of complement proteins in serum, monocytes. It counts as cell-based. On the procedure:
Heat-inactivated (HI) serum was prepared by incubating serum in a 56° C. water bath for 30 minutes. […] Treatment of serum with methylamine (MA) was done by incubating serum with 0.67% of methylamine for 2.5 hours at 37° C., followed by three washes with DPBS using Amicon centrifugal filter unit with a 3K MW cut-off (Millipore, Billerica, Mass.). DPBS-treated serum was prepared in the same manner and used as control serum for MA-treated serum. For blocking of factor D in the serum, 166-32 at concentration 20 μg/mL was incubated with serum on ice for 30 minutes, and then used for binding studies. For binding experiments in the presence of EGTA or MgEGTA, serum was incubated with 10 mM EGTA with or without 10 mM MgCl2 for 10 minutes at room temperature. The untreated and EGTA/MgEGTA-treated serum was then used to pre-treat PGG and perform binding studies as described earlier.

Assay [6] deals with T1, iC3b (Homo sapiens, UniProt P01024).
T1 construct: from tissue
T1 sequence (P01024 749-1303 limits assumed): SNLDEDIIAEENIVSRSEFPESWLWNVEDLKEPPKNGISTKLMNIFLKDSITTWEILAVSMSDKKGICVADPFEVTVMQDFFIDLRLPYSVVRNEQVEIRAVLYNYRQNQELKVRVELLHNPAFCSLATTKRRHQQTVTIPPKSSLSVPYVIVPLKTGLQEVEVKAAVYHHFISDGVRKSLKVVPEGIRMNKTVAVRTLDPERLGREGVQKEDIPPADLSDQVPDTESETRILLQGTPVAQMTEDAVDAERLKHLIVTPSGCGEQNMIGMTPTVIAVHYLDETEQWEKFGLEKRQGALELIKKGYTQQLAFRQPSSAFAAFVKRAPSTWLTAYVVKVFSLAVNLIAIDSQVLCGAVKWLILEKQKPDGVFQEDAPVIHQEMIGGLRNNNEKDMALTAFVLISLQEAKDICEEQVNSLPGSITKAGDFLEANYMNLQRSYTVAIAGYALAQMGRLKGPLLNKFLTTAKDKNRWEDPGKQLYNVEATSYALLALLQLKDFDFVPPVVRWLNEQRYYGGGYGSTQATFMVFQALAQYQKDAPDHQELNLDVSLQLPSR
T1 sequence (P01024 23-667 partner limits assumed): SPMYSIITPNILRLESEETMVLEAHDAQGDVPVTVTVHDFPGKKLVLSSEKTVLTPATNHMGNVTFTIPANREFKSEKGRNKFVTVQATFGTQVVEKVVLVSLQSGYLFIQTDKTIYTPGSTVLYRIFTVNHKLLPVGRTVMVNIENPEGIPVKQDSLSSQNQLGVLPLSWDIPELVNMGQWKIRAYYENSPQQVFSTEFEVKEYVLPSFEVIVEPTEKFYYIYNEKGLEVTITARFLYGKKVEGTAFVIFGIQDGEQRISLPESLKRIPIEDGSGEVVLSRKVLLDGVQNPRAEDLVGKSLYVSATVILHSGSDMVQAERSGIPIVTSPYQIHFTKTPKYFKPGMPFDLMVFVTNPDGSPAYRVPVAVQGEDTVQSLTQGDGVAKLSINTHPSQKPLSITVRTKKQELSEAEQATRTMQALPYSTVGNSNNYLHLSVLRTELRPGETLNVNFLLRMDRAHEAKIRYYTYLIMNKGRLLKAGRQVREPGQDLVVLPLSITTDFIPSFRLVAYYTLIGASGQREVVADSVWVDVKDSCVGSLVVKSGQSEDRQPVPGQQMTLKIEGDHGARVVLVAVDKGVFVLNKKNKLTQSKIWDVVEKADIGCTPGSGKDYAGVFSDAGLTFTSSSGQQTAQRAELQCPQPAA
T1 sequence (P01024 1321-1663 partner limits assumed): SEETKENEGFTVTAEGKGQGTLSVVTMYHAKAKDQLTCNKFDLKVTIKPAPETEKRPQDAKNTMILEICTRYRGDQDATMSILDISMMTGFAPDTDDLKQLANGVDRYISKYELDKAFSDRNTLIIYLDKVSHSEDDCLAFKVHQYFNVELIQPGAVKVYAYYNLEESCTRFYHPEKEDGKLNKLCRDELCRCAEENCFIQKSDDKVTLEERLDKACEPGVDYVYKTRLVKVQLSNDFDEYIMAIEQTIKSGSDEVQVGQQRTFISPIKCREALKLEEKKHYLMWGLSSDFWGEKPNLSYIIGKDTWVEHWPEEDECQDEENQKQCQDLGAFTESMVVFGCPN
Description: ELISA for iC3b deposition on immobilized PGG β-glucan. It counts as binding. The conditions noted are these: 300 μg/mL immobilized. On the procedure:
PGG β-glucan or dextran was immobilized on wells of a 96-well polystyrene plate (COSTAR, Coming, Inc., Lowell, Mass.) by drying the glucans at 50° C. followed by UV cross-linking. The glucan-coated plate was first blocked with 1% BSA before incubation with untreated serum or serum undergone various treatments as described in binding studies, diluted 1:2 with wash buffer (PBS/0.05% Tween-20) for 30 minutes at 37° C. After washing the serum from the plate, the bound iC3b was probed using the anti-iC3b monoclonal antibody followed by biotin-labeled goat anti-mouse IgG Ab. The amount of immobilized biotin-labeled antibody was determined using streptavidin peroxidase and TMB substrate solution (KPL, Gaithersburg, Md.). OD450 of each well was measured with the spectrophotometer SpectraMAX 250 (Molecular Devices, Sunnyvale, Calif.). Fold change was calculated as OD450 of wells containing immobilized β-glucan divided by OD450 of wells containing no β-glucan, both incubated in the presence of treated or untreated serum.

Where [7] appears, read: 2%, 5% or 10% autologous serum, 37° C., two hours.
Where [8] appears, read: 10% autologous serum, 37° C., two hours.
Where [9] appears, read: 100, 200, 400 μg/mL, 10% autologous serum, 37° C., two hours.
The mark [10] stands for this setting: two hours at 4° C., room temperature or 37° C., 10% serum.

On to “β(1,6)-[poly-1,3)-D-glucopyranosyl]-poly-β(1,3)-D-glucopyranose [PGG β-glucan]”, for which the “Minimum concentration of β-glucan detected on the cells by the BfD IV detection system” value in assay [1] and in assay [4] was 100 µg/mL each time. Also, the “Incubation time of maximal binding” value in assay [1] (100 μg/mL, 10% serum, 37° C.) lay in the range of 60 to 120 min; in assay [4] (200 μg/mL, 10% serum, 37° C.), 30 to 60 min. The “Percentage of serum at which maximal binding occurred” value in assay [1] (setting [7]) and in assay [4] (setting [7]) was 10% throughout. Moreover, the “Percentage of serum at which minimum binding occurred” value in assay [1] (setting [7]) and in assay [4] (setting [7]) was 2% throughout. Also, the “Concentration at which percentage of BfD IV positive cells reached a plateau” value in assay [1] (setting [8]) and in assay [4] (setting [8]) was 200 µg/mL throughout. Moreover, the “Binding (MFI and percentage of BfD IV positive cells)” value was “bound to both neutrophils and monocytes” in assay [1] (setting [9]); “bound to both neutrophils and monocytes” in assay [4] (setting [9]). Further, the “Incubation temperature of maximal binding” value in assay [1] (setting [10]) and in assay [4] (setting [10]) was 37 °C each time. Moreover, the “iC3b staining on cells incubated with β-glucan vs serum alone” value in assay [2] was “increased staining of iC3b”. For the same substance, the “Extent of rescued binding to cells in HI serum (MFI, percentage of BfD IV positive cells)” value in assay [3] was “minimal”. Further, the “Binding in the presence of heat inactivated (HI) serum” value in assay [5] (10% HI serum vs regular serum, 100 μg/mL) is “abrogated”. For the same substance, the “Average percentage of binding inhibition in HI serum” value in assay [5] (based on MFI, five donors) is recorded as 90%. For the same substance, the “Range of percentage of binding inhibition in HI serum” value in assay [5] (based on MFI, five donors) is 81-100%. Also, the “Fold increase of iC3b detected on immobilized glucan compared to background” value in assay [6] (HI serum 30 minutes at 37° C.) is listed as “significantly less iC3b detected”; in assay [6] (regular serum 30 minutes at 37° C.), “significantly higher”.
